The source of these data is publication PMC9139979, “Features of ZED1227: The First-In-Class Tissue Transglutaminase Inhibitor Undergoing Clinical Evaluation for the Treatment of Celiac Disease” (Cells, 2022).

The target of assay [1] is T1, hTG2 (Homo sapiens, UniProt P21980).
T1 construct: purchased Zedira T022
T1 sequence (P21980 1-687): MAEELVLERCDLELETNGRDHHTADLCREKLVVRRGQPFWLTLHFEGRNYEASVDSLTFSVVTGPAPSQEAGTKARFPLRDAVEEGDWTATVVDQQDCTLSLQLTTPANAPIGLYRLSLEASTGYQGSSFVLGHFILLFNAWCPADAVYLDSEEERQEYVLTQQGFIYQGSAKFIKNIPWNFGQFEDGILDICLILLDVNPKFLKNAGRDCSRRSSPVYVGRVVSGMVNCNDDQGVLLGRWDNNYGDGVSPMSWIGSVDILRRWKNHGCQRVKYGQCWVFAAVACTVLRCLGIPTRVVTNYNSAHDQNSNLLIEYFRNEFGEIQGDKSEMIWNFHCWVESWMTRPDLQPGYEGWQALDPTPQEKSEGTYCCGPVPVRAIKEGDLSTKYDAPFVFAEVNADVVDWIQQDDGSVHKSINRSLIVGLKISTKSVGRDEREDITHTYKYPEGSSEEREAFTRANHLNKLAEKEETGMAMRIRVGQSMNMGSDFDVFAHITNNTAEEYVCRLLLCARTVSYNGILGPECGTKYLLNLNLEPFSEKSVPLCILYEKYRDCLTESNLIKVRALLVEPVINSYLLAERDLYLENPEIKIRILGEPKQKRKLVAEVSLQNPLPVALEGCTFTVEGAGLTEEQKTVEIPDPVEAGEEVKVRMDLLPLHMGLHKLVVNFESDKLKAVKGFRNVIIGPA
In words: Fluorescent transamidation assay (DCC-assay), hTG2. Particulars: for IC50: recombinant human TG2, transamidation assay, apparent IC50 of irreversible inhibitor, read-out: App. IC50 hTG2; for Fold less potent compared to ZED1227 (hTG2): same transamidation assay. It counts as biochemical. As for the experimental part:
Inhibition data were determined using the fluorescent transamidation assay (dansylcadaverine incorporation into glutamine-donor substrate N,N-dimethyl casein, DCC-assay). Briefly, to 15 μL of ZED1227 solution (dissolved and serial diluted in 2% (v/v) DMSO/assay buffer), 285 μL assay buffer [47.5 mM tris(hydroxymethyl)aminomethane, 9.5 mM CaCl2, 9.5 mM glutathione, 2.4% (v/v) glycerol, 190 mM NaCl, pH 8.0] containing dansylcadaverine (15.9 μM), N,N-dimethyl casein (3.8 μM) and the indicated recombinant transglutaminase enzyme [0.95 μg/mL hTG1 (T035), 0.81 μg/mL hTG2 (T022), 0.83 μg/mL hTG6 (T021), all from Zedira] were added, mixed and the kinetic measurement started immediately. In the case of hFXIII-A2 (0.83 μg/mL, T027, Zedira), the assay buffer contained human α-thrombin (5.2 × 10^−3 U/μL, T056, Zedira). The mixture was incubated for 20 min at room temperature to activate FXIII. In the case of hTG3a (0.81 μg/mL, T013, Zedira), full enzymatic activity was obtained by incubation for 80 min at 37 °C in assay buffer before addition of the inhibitor and start of the kinetics.
Fluorescence emission was continuously monitored for 30 min at λem = 500 nm (λex = 330 nm) and 37 °C using a CLARIOstar fluorescence plate reader (BMG Labtech, Ortenberg, Germany). All measurements were performed in triplicate. The respective IC50 (and IC90 for TG2) values were calculated by non-linear regression using the MARS software package (BMG Labtech). An irreversible-acting inhibitor, such as ZED1227, should, correctly, be characterized by the second-order rate constant k2nd, as detailed by Keillor [46]. However, such data are rather abstract and difficult to comprehend.
To facilitate comparability during lead structure optimization and to roughly estimate concentrations needed at the target site, the apparent IC50 values (calculated by four-parameter non-linear fit by MARS software) for irreversible inhibitors are more instructive and are therefore reported. Further, we report the potency of commercially available reference inhibitors Z006 (“Z-DON”), Z013 (ZED754), and T101 (all Zedira). To gain deeper mechanistic insight, we discuss the second-order rate constants (k2nd) published for Z006 and ZED754 in relation to their respective IC50 values.

In assay [2] the target is TG2. The arrangement: method as in PMID 32045569. Particulars: TG2 catalyzed hydrolysis of Z-Glu(HMC)-Gly-OH at pH 6.5; cited from earlier work.

Structures are written as SMILES. Square brackets hold non-standard residues; d marks the D form. Peptide text beside a SMILES is read from it. * marks the point of attachment. Nle(5E-ene,6-CO2Et) = CCOC(=O)/C=C/CC[C@H](N)C(=O)O; DON = [N-]=[N+]=CC(=O)CC[C@H](N)C(=O)O; Cbz = O=C(OCc1ccccc1)*

With `CC(=O)CSc1n(C)c(C)c(C)[n+]1C.[Cl-]` [T101], in assay [1], the 50% inhibitory concentration (IC50) (usually the concentration at which inhibition is half-maximal) came out at 1780 nM and the “Fold less potent compared to ZED1227 (hTG2)” value stood at 33 fold.

In the case of `COC(=O)[C@H](CC(C)C)NC(=O)[C@@H]1CCCN1C(=O)[C@@H](NC(=O)[C@H](CCC(=O)C=[N+]=[N-])NC(=O)OCc1ccccc1)C(C)C` [Z006, Z-DON-Val-Pro-Leu-OMe] (Cbz-[DON]VPL-OMe), in assay [1], the IC50 was found to be 70 nM. Further, in assay [2], the Ki (usually a measure of affinity in units of concentration, obtained from inhibition or displacement) was 96 nM and the “k2nd (second-order rate constant)” value is 191,000 M^−1s^−1.

Consider `CCOC(=O)/C=C/CC[C@H](NC(=O)OCc1ccccc1)C(=O)N[C@@H](CCC(N)=O)C(=O)N1CCC[C@H]1C(=O)N[C@@H](CC(C)C)C(=O)OC` [ZED754] (Cbz-[Nle(5E-ene,6-CO2Et)]QPL-OMe), for which, in assay [1], the IC50 was 182 nM and the “Fold less potent compared to ZED1227 (hTG2)” value was “about 3.5 fold”. Also, in assay [2], the Ki is 450 nM and the “k2nd (second-order rate constant)” value was 51,500 M^−1s^−1.
